In US6706722B2, “Heteroaryl derivatives and their use as medicaments” (Zentaris AG, priority 2000, dated 2004):

Columns and labels:
[1] = test system: ovary adenocarcinoma line SKOV-3 (ATCC HTB77); test: XTT proliferation test (cellular dehydrogenase activity), SKOV-3; format: cell-based; settings: Homo sapiens, SK-OV-3, in-vitro cytotoxicity, values determined from 5 substance concentrations, 45 h incubation
Procedure: (§1) In a proliferation test, the antiproliferative activity of the substance D-43411 was examined using established tumor cell lines. The Cellular Dehydrogenation activity is determined in the test, which enables determination of the vitality of the cell and, indirectly, the cell count. The cell lines used are the human cervical carcinoma cell lines KB/HeLa (ATCC/CCL17), the murine lymphocyte leukemia L1210 (ATCC CCL-219), the human breast adenocarcinoma line MCF7/ATCC HTB22) and the ovary adenocarcinoma line SKOV-3 (ATCC HTB77). These are established cell lines which are very well characterized and were obtained from ATCC and cultured. XTT Test for Cellular Dehydrogenase Activity The adherently growing tumor cell lines HeLa/KB, SKOV-3 and MCF7 and the L1210 leukemia line, which grows in suspension, were cultivated under standard conditions in an incubator with gas inlet at 37° C., 5% CO2 and 95% atmospheric humidity. On Test Day 1, the adherent cells are detached using trypsine/EDTA and pelleted by centrifugation. […] The cell plates are then incubated in the incubator with gas inlet for a further 3 hours, and the optical density (OD490nm) is determined in a photometer. Using the OD490nm obtained, the inhibition is calculated in percent relative to the control. […]

[2] = test system: murine lymphocyte leukemia L1210 (ATCC CCL-219); test: XTT proliferation test (cellular dehydrogenase activity), L1210; format: cell-based; settings: Mus musculus, in-vitro cytotoxicity, values determined from 5 substance concentrations, 45 h incubation
Procedure: as §1

[3] = test system: human breast adenocarcinoma line MCF7 (ATCC HTB22); test: XTT proliferation test (cellular dehydrogenase activity), MCF7; format: cell-based; settings: test period of 48 h
Procedure: as §1

[4] = test system: human cervical carcinoma cell lines KB/HeLa (ATCC/CCL17); test: XTT proliferation test (cellular dehydrogenase activity), KB/HeLa; format: cell-based; settings: in-vitro cytotoxicity, values determined from 5 substance concentrations, 45 h incubation
Procedure: as §1

COc1cc(OC)cc(N2CCN(C(=O)c3c4ccccc4nc4ccccc34)CC2)c1 [D-43411, 1-(3,5-Dimethoxyphenyl)-4-(9-acridinyl-carbonyl)piperazine] gave a melting point of 172 to 175 °C, an IC50 [1] of less than 0.3 ng/mL and an IC50 [2] of less than 0.3 ng/mL. The inhibition at 3160 µg/mL ([3]; at 3.16 mg/ml) was 18%, the IC50 ([3]; in-vitro cytotoxicity, values determined from 5 substance concentrations) was greater than 3160 ng/mL and the IC50 [4] was less than 0.3 ng/mL.
